The target of assay [1] is T1, α4β1 integrin (Homo sapiens, UniProt P05556+P13612).
T1 construct: Jurkat E6.1 cell line, which endogenously expresses α4β1 integrin; host or cells: Jurkat E6.1
Put plainly: LDV-FITC competitive binding on intact Jurkat E6.1 cells. The following applies: intact Jurkat E6.1 cells vs. LDV-FITC; mean ± SD. How it is done:
The assays were performed as previously described with the following modifications. Jurkat E6.1 cells were resuspended (50,000 cells/sample) in 0.1% BSA in a HEPES buffer (NaCl 110 mM; KCl 10 mM; Glucose 10 mM; MgCl2 1 mM; CaCl2 1.5 mM; HEPES 30 mM; pH 7.4) and pre-incubated with different concentrations (10^−11–10^−5 M) of compounds for 20–30 min at RT. Then, LDV-FITC (5 µM) was added to the cells, and they were incubated in the dark for an additional 30 min at RT. At the end of the incubation with LDV-FITC, cells were washed with 0.1% BSA in a HEPES buffer. The FITC fluorescence intensity was measured using an EnSpire Multimode Plate Reader (PerkinElmer, Waltham, MA, USA). The data were plotted as LDV-FITC specific bindings versus the concentration of the competitor, and the data were fitted to a one-site competition equation; the equilibrium dissociation constant Ki was calculated from the IC50 using the Cheng–Prusoff equation.

Assay [2] relates to JNK. The assay can be described thus: Western blot, FN-induced JNK phosphorylation in Jurkat E6.1 cells. It counts as cell-based. The following applies: Jurkat E6.1 cells pre-treated with 10^−7, 10^−8, 10^−9 M, then FN (10 µg/mL) 30 min. How it is done:
To this purpose, Jurkat E6.1 cells were pre-treated with different concentrations (10^−7, 10^−8, 10^−9 M) of the compounds and then exposed to FN (10 µg/mL) for 30 min. […] In addition, the effects observed on intracellular signaling were concentration-dependent, except for compound 13 on AKT activation.
Western blot analysis was performed as previously described, with the following modifications. […] For integrin antagonists, JurkatE6.1 cells were subsequently incubated with FN (10 μg/mL) at 37 °C for 30 min. At the end of the incubation period, Jurkat E6.1 cells were lysed on ice using T-PER® (Tissue Protein Extraction Reagent, Life Technologies Italia, Milan, Italy), supplemented with a phosphatase inhibitor cocktail. Protein extracts were quantified using a BCA Protein Assay (Pierce, Rockford, IL, USA). The proteins from the cytoplasmatic extract were denatured at 95 °C for 3 min, then equal amounts of protein samples (30–50 μg) were loaded and separated via 12% SDS-PAGE. Proteins were transferred onto a nitrocellulose membrane (Biorad, Hercules, CA, USA), which was blocked with 5% nonfat milk in a Tris-buffered saline (10 mM Tris-HCl, pH 8, containing 150 mM NaCl) containing 0.1% Tween 20 for 1 h at room temperature. Membranes were stained overnight at 4 °C with anti-actin antibody (1:5000, Merck Life Science, Milan, Italy) or with anti-phospho-ERK1/2, anti-total ERK1/2, anti-phospho-AKT, anti-total-AKT, or anti-phospho-JNK antibodies (1:1000; Cell Signaling Technology, Danvers, MA, USA). The membranes were incubated with anti-rabbit peroxidase-conjugated secondary antibodies at a dilution of 1:8000. Blots were developed with a SuperSignal West Pico chemiluminescent substrate. Protocols for digital image acquisition and analysis have previously been described.
On the technique in general: In western blotting, separated proteins are transferred to a membrane and probed.

The target of assay [3] is T1, α4β1 integrin. Put plainly: α4β1 integrin-mediated Jurkat E6.1 cell adhesion to FN. Format: cell-based. The following applies: Jurkat E6.1 cell adhesion to FN (10 μg/mL); antag. = reduced cell adhesion; mean ± SD. The method, then:
To investigate the ability of the new peptides to modulate integrin-mediated cell adhesion, we employed cell adhesion assays using a Jurkat E6.1 cell line, which endogenously expresses α4β1 integrin and the natural ligand FN. […] On the contrary, ligands able to increase cell adhesion are defined as agonists.
The assays were performed as previously described. Briefly, regarding adhesion assays on Jurkat E6.1 or HL-60 cells, black 96-well plates (Corning Costar) were coated overnight at 4 °C with FN or Fg (10 μg/mL) or VCAM-1 (2 μg/mL) in order to investigate α4β1 integrin-mediated cell adhesion. To avoid any kind of unspecific binding, plates were incubated with 100 μL/well of blocking solution (1% BSA in HBSS) for 30 min at 37 °C. Cells were counted, stained with the CellTracker green CMFDA (12.5 μM, 30 min at 37 °C, Life Technologies Italia, Milan, Italy) and after three washes, were preincubated with increasing concentrations of new compounds (10^−10–10^−4 M) or with the vehicle (methanol) for 30 min at 37 °C.
Then, cells were plated (500,000/well) on coated wells and incubated for 30 min at 37 °C. Afterwards nonadherent cells were removed via washing with a blocking solution, and the remaining adhered cells were lysed with 0.5% Triton X-100 in PBS (30 min at 4 °C). Green fluorescence was measured (Ex485 nm/Em535 nm) using an EnSpire Multimode Plate Reader (PerkinElmer, Waltham, MA, USA).
In both types of adhesion assay, the number of adherent cells was determined via comparison with a standard curve made in the same plate. Experiments were carried out in quadruplicate and repeated at least three times. Data analysis and EC50 or IC50 values were calculated using GraphPad Prism 9.5.1 (GraphPad Software, San Diego, CA, USA).

T1 sequence (P13612 34-1032): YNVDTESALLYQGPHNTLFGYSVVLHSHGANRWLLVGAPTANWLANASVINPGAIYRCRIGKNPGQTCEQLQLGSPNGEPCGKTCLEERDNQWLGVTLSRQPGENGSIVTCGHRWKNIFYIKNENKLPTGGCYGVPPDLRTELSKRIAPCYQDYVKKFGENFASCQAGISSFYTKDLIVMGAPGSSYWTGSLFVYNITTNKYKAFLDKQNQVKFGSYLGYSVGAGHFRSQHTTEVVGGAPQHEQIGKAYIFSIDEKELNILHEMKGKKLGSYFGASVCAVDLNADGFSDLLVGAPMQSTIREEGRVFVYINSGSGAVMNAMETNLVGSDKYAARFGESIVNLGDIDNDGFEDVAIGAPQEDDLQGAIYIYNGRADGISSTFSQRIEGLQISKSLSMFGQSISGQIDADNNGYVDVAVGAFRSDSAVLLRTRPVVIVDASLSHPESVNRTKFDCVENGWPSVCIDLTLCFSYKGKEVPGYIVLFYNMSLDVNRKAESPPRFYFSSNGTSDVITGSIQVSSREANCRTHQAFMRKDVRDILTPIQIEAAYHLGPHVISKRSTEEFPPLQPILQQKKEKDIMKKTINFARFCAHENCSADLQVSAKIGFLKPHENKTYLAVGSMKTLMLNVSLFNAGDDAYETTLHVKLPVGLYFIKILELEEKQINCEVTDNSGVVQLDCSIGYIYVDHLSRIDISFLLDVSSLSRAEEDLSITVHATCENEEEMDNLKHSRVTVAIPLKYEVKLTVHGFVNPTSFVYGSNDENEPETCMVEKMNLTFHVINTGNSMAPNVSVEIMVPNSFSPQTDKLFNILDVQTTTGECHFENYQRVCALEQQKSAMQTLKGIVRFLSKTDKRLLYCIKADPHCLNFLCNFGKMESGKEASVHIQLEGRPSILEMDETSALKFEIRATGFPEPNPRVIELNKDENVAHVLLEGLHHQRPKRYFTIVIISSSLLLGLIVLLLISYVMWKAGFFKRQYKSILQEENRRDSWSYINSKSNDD
T1 sequence (P05556 21-798): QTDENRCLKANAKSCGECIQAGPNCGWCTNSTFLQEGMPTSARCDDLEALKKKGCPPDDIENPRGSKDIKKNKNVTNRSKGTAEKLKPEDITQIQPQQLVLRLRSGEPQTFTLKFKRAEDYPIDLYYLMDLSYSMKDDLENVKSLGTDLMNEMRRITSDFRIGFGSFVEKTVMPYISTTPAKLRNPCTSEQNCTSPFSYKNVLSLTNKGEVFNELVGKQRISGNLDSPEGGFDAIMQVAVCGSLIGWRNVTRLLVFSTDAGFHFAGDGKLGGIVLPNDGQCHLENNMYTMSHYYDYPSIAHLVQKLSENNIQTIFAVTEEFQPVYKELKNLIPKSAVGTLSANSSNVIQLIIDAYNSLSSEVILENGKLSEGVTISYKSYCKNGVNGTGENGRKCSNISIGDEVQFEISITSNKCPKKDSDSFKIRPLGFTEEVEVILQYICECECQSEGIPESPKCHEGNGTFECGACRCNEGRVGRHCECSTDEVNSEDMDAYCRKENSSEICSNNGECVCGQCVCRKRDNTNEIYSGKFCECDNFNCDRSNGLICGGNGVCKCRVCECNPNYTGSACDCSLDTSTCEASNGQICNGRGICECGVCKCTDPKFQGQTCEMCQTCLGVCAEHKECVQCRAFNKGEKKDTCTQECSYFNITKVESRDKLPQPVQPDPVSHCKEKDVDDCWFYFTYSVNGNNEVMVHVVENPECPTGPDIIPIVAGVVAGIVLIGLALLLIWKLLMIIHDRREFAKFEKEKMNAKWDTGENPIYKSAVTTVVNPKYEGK

As usually defined, the Ki is the dissociation constant of the complex between target and ligand, obtained from inhibition or displacement. Read a low Ki as tighter binding. On to `CC(=O)N[C@@H](CNC(=O)Cc1ccc(NC(=O)Nc2ccccc2C)cc1)C(=O)NCC(=O)O` [compound 3], for which the affinity in assay [1], expressed as Ki, was 1.3 ± 0.7 nM. For the same compound, the “FN-induced JNK phosphorylation” value in assay [2] is reported as “did not counteract”.

On to `CCCNC(=O)[C@@H](CC(=O)NCC(=O)O)NC(=O)Cc1ccc(NC(=O)Nc2ccccc2C)cc1` [compound 8], for which the inhibition constant (Ki) in assay [1] was 1.9 ± 0.8 nM. Besides, the “FN-induced JNK phosphorylation” value in assay [2] is recorded as “able to significantly prevent”.

One may read the IC50 as the concentration that inhibits the measured activity by half. A high value points to a need for much substance. `Cc1ccccc1NC(=O)Nc1ccc(CNC(=O)C[C@@H](C)NC(=O)CC(=O)O)cc1` [compound 13]: the affinity in assay [1] corresponds to a Ki of 16.7 ± 5.2 nM. In addition, the half-inhibitory concentration (IC50) in assay [3] was 416 nM. In addition, the “FN-induced JNK phosphorylation” value in assay [2] is listed as “did not counteract”.

(Values after publication PMC10253817, “Design, Pharmacological Characterization, and Molecular Docking of Minimalist Peptidomimetic Antagonists of α4β1 Integrin” (International Journal of Molecular Sciences, 2023).)
